Test results: ChEMBL document CHEMBL2074051, “Ranking of P-glycoprotein substrates and inhibitors by a calcein-AM fluorometry screening assay” (Anticancer Drugs, 1996)
Non-standard residues stand in square brackets, D forms with d. Residues, ends and D or L forms follow the SMILES beside them. *: point of attachment. NMeI = CC[C@H](C)[C@H](NC)C(=O)O; NMeD = CN[C@@H](CC(=O)O)C(=O)O; NMeV = CN[C@H](C(=O)O)C(C)C; Pip = O=C(O)[C@@H]1CCCCN1; dLac = C[C@@H](O)C(=O)O; OtBu = CC(C)(C)O*

Columns and labels:
Type in all cases: functional, cell-based
[1] = target: T1, ATP-dependent translocase ABCB1 (P-glycoprotein) (Homo sapiens, UniProt P08183); experiment: (§1) TP_TRANSPORTER: increase in Calcein-AM intracellular accumulation (Calcein-AM: 0.25 uM) in MDR-CEM cells; conditions: human, MDR-CEM cells, probe Calcein-AM
[2] = target: T1, ATP-dependent translocase ABCB1 (P-glycoprotein); experiment: TP_TRANSPORTER: increase in Calcein-AM intracellular accumulation (Calcein-AM: 0.25 uM) in MDR-P388 cells; conditions: mouse, probe Calcein-AM
[3] = target: ATP-dependent translocase ABCB1 (Homo sapiens, UniProt P08183); experiment: as §1
Chain of ATP-dependent translocase ABCB1 (P08183 whole entry): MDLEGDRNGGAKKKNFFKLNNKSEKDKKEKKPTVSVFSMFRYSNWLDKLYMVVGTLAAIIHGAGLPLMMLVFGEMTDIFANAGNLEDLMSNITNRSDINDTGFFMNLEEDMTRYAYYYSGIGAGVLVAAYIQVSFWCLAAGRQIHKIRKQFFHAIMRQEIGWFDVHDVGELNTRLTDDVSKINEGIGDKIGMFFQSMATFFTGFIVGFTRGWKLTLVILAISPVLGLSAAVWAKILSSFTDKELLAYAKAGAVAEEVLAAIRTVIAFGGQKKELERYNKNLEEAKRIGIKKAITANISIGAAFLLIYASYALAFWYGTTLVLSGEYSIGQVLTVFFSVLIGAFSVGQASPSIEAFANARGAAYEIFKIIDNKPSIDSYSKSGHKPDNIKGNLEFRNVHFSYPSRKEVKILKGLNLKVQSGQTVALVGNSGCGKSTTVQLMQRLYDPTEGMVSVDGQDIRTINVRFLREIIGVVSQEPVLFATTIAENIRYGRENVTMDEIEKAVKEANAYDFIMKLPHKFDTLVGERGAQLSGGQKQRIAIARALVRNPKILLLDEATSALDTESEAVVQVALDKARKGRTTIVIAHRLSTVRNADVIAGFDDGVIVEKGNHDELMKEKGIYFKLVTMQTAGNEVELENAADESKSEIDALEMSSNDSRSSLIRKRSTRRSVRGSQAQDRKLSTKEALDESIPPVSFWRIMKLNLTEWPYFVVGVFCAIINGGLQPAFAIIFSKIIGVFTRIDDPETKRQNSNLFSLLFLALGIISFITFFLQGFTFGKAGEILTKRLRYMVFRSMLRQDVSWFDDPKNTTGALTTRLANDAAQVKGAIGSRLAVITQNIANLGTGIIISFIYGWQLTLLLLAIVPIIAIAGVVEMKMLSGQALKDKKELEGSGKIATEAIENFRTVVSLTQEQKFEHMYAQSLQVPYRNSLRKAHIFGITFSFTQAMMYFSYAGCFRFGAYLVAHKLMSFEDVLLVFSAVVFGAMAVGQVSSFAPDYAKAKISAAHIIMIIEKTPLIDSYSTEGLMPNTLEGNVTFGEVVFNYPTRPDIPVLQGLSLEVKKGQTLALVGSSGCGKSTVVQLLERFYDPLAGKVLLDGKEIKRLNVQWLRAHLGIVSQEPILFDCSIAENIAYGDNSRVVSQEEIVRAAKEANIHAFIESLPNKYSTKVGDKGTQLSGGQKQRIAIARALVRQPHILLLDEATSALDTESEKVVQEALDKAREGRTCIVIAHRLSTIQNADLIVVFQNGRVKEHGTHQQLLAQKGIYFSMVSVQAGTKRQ

T1 sequence (P08183 whole entry): as above

| EC50 [1] | EC50 [2] | EC50 [3] | Structure (SMILES) |
| --- | --- | --- | --- |
| 0.22 µM | 0.06 µM |  | CC[C@H](C)[C@H]1C(=O)NCC(=O)N(C)[C@@H](C(C)C)C(=O)N[C@@H](Cc2ccc(OC)cc2)C(=O)O[C@H](C)C(=O)N2CCCC[C@H]2C(=O)N(C)[C@@H](C(C)C)C(=O)N[C@@H](C(C)C)C(=O)N(C)[C@@H](CC(=O)OC(C)(C)C)C(=O)N(C)[C@@H]([C@@H](C)CC)C(=O)N1C (cyclo(G[NMeV]Y(Me)[dLac][Pip][NMeV]V[NMeD](OtBu)[NMeI][NMeI])) |
|  |  | 14.4 µM | CCN(CC)CCCC(C)Nc1c2ccc(Cl)cc2nc2ccc(OC)cc12 (stereo not drawn) [QUINACRINE] |
